{
  "source": "paper PMC9583845",
  "about": "“Characterization of the chicken melanocortin 5 receptor and its potential role in regulating hepatic glucolipid metabolism” (Frontiers in Physiology, 2022)",
  "key": {"[1]": {"system": "primary chicken hepatocytes", "assay": "Glucose production from primary cultured chicken hepatocytes", "type": "cell-based", "conditions": "primary chicken hepatocytes; 100 nM for 30 or 60 min, or 0.1–100 nM for 60 min; gluconeogenic substrates 20 mM lactate, 2 mM pyruvate; four independent experiments; Figures 7A,B", "description": "(§1) To evaluate the effect of ACTH1-39 on chicken liver, the chicken hepatocytes were prepared and maintained as a monolayer culture. Briefly, one-month-old male chicken hepatocytes were isolated by perfusion of a liver with Ca^2+-free KRB buffer to remove blood cells, and being digested with 0.25% collagenase-I for 10 min. Hepatocytes were obtained following filtering and washing using M199 medium. Then the hepatocytes were plated in a Corning CellBIND 48-well microplate (Corning, NY, cat. no.3338) with M199 medium containing 100 U/ml penicillin and […] streptomycin (Gibco), 5 μg/ml bovine insulin (Sigma), and 5% FBS at 37°C in a 5% CO2 atmosphere. To adhere to the wall, the cells were incubated on the 48-well plate for 4 h.\nGlucose production from primary cultured chicken hepatocytes was measured as previously described ([Collins et al., 2006]). Briefly, cells were washed three times with warm phosphate-buffered saline (PBS) to remove glucose, followed by treatment with 100 nM (or different concentration gradients) chicken ATCH1-39 for 30 min or 60 min in glucose-free medium containing gluconeogenic substrates (20 mM sodium lactate and 2 mM sodium pyruvate). Glucose concentration was determined with a glucose assay kit (Applygen, Beijing, China, catalog no. E1011). Briefly, the 5 µl medium was added into 195 µl reagent and incubated for 20 min at 37°C. Absorbance in 550 nm was measured in a standard glucose solution."}, "[2]": {"system": "intracellular cAMP / CREB", "conditions": "ref Herzig et al., 2001; Noriega et al., 2011; cited from earlier work", "description": "Like its mammalian counterparts, numerous putative transcription factor binding sites were found in the upstream of the MC5R transcription start site. According to reports, Foxo4 may bind to the ..."}, "[3]": {"system": "MC5R mRNA, primary chicken hepatocytes", "assay": "MC5R mRNA in primary chicken hepatocytes, RT-qPCR", "type": "cell-based", "conditions": "6 h", "description": "as §1, with “h. For quantitative real-time PCR, primary cultured chicken hepatocytes were treated with various concentrations of ACTH1-39 (or other composition) at 37°C for 6 h. The relative amount of mRNA was calculated using the comparative Ct method. Chicken β-actin gene was used as the reference gene. Amplification of specific transcripts was confirmed by analyzing the melting curve profile performed at the end of each run and by determining the size of the PCR products using agarose electrophoresis and ethidium bromide staining.” for “h.”"}},
  "note": "Entries after “also recorded” stand apart in the source; their conditions may differ.",
  "data": [
    {"substance": "glucagon: chicken glucagon; induce cAMP elevation in a dose-dependent way", "values": [
      {"measurement": "glucose production (in words)", "setting": "[1]", "result": "induction of gluconeogenesis"},
      {"measurement": "intracellular cAMP accumulation and CREB activation", "setting": "[2]", "result": "enhance the intracellular cAMP accumulation and activate CREB"},
      {"measurement": "increase in MC5R mRNA abundance", "setting": "[3]; glucagon 10–100 nM, N = 4, Figure 6E", "result": 3.5, "unit": "fold"},
      {"measurement": "MC5R mRNA abundance (in words)", "setting": "[3]; primary chicken hepatocytes, N = 4, vs β-actin, Figures 6C-E", "result": "increased hepatic MC5R mRNA abundance; also recorded: enhance the expression of MC5R in cultured hepatocytes in a dose-dependent manner"}
    ]}
  ]
}
